Drawing on PubChem BioAssay AID1745844 (Carcinogenic Potency Database (CPDB), 2022), this text covers TD50 and carcinogen call for 2 compounds.

For this data set, the system named is rodent lifetime carcinogenesis bioassay, tumor incidence TD50. The experiment in a line: chronic cancer bioassays in animals – CPDB, compiled studies (AID 1745844).

The source made the active and inactive calls. The rule behind the calls is not given here.

For orientation: TD50 means the dose at which the toxic effect under study appears in half of the subjects. With `Cc1ccc(O)c(O)c1`, the TD50 is, setting by setting: (rat, strain F344/DuCrj, females, in feed, site: forestomach, lesion: squamous-cell carcinoma, dosed 104 weeks, study length 104 weeks) 1500 mg/kg/day; (rat, strain F344/DuCrj, females, in feed, site: forestomach, lesion: squamous-cell papilloma, dosed 104 weeks, study length 104 weeks) 253 mg/kg/day; (rat, strain F344/DuCrj, females, in feed, site: stomach, glandular, lesion: adenocarcinoma, dosed 104 weeks, study length 104 weeks) 1090 mg/kg/day; (rat, strain F344/DuCrj, females, in feed, site: stomach, glandular, lesion: sarcoma, dosed 104 weeks, study length 104 weeks) 6500 mg/kg/day; (rat, strain F344/DuCrj, males, in feed, site: forestomach, lesion: squamous-cell carcinoma, dosed 104 weeks, study length 104 weeks) 719 mg/kg/day; (rat, strain F344/DuCrj, males, in feed, site: forestomach, lesion: squamous-cell papilloma, dosed 104 weeks, study length 104 weeks) 468 mg/kg/day. The TD50 (rat, strain F344/DuCrj, males, in feed, site: stomach, glandular, lesion: adenocarcinoma, dosed 104 weeks, study length 104 weeks) was 656 mg/kg/day and the TD50 (rat, strain F344/DuCrj, males, in feed, site: stomach, glandular, lesion: sarcoma, dosed 104 weeks, study length 104 weeks) was found to be 3830 mg/kg/day. Besides, the carcinogen call (rat, strain F344/DuCrj, females, in feed, site: stomach, glandular, lesion: adenoma, dosed 104 weeks, study length 104 weeks) was “positive” and the carcinogen call (rat, strain F344/DuCrj, males, in feed, site: stomach, glandular, lesion: adenoma, dosed 104 weeks, study length 104 weeks) was “positive”.

Take `C=CCNN`: the TD50 is 163 mg/kg/day (mouse, strain Swiss albino, females, in drinking water, site: blood vessels, lesion: angioma, dosed 105 weeks, study length 105 weeks); 119 mg/kg/day (mouse, strain Swiss albino, females, in drinking water, site: blood vessels, lesion: several types, types named in the paper, dosed 105 weeks, study length 105 weeks); 234 mg/kg/day (mouse, strain Swiss albino, females, in drinking water, site: liver, lesion: several types, types named in the paper, dosed 105 weeks, study length 105 weeks); 96 mg/kg/day (mouse, strain Swiss albino, females, in drinking water, site: lung, lesion: adenocarcinoma, dosed 105 weeks, study length 105 weeks); 46.1 mg/kg/day (mouse, strain Swiss albino, females, in drinking water, site: lung, lesion: adenoma, dosed 105 weeks, study length 105 weeks); 38.4 mg/kg/day (mouse, strain Swiss albino, females, in drinking water, site: lung, lesion: several types, types named in the paper, dosed 105 weeks, study length 105 weeks). Besides, the TD50 (mouse, strain Swiss albino, males, in drinking water, site: liver, lesion: hepatoma, dosed 93 weeks, study length 93 weeks) was 274 mg/kg/day (inactive); the TD50 (mouse, strain Swiss albino, males, in drinking water, site: lung, lesion: adenoma, dosed 93 weeks, study length 93 weeks) turned out to be 28.9 mg/kg/day; the TD50 (mouse, strain Swiss albino, males, in drinking water, site: lung, lesion: several types, types named in the paper, dosed 93 weeks, study length 93 weeks) was 30.9 mg/kg/day.
